Drawing on patent USRE47084E1, “Oral medicinal product with modified release of at least one active principle in multimicrocapsular form” (FLAMEL IRELAND LIMITED, priority 2003, dated 2018), this text covers solubility for 4 molecules.

By solubility is commonly meant how much of the substance goes into solution per volume. A high value points to a readily soluble substance.

In brackets after ≈: the same amount, converted by molar mass.

This series in a line: Solubility of the active principles. Format: physicochemical.
`Nc1nc2c(ncn2COCCO)c(=O)[nH]1` [Acyclovir]: the solubility stood at 10000 µg/mL (≈ 44400 µM). To `Cc1c(OCC(F)(F)F)ccnc1C[S+]([O-])c1nc2ccccc2[nH]1` (stereo not shown) [Lansoprazole] belongs 50 µg/mL (≈ 135 µM); to `CC(=O)S[C@@H]1CC2=CC(=O)CC[C@]2(C)[C@H]2CC[C@@]3(C)[C@@H](CC[C@@]34CCC(=O)O4)[C@H]12` [Spironolactone], 20 µg/mL (≈ 48 µM); to `O=C1CN(/N=C/c2ccc([N+](=O)[O-])o2)C(=O)N1` [Nitrofurantoin], 300 µg/mL (≈ 1260 µM).
